Measurements from US11298298B2, “Method for producing nonaqueous composition for external use on skin” (CHANEL PARFUMS BEAUTE, priority 2017, dated 2022).

Assay: Particle size measurement by dynamic light scattering
Assay type: physicochemical
Details: steps (a) to (c) without palmitoyl-L-carnitine chloride
Procedure: [1] Particle Size Measurement
The particle size of particles contained in the nonaqueous composition for external use on the skin 1 week after preparation was measured by the dynamic light scattering method. Specifically, the measurement was performed on the number mode using a nanoparticle analysis system (Zetasizer Nano ZSP model manufactured by Malvern Instruments Ltd.).

Particle size of composition containing particles of the surfactant alone: about 2.5 nm
Substance: sucrose erucic acid ester
